Test results as given in patent US11071730B2, “Substituted 6-azabenzimidazole compounds” (Gilead Sciences, Inc., priority 2018, dated 2021).

The compounds below were run against human HPK1 (MAP4K1) (Homo sapiens (Human), UniProt Q92918) (assay: HPK1 IC50 Assay (TR-FRET biochemical kinase assay, STK S1 peptide substrate)). Conditions: recombinant human HPK1 kinase domain 0.15 nM, 10 μM ATP, 1 μM STK S1 peptide; geometric mean.
Protocol: The enzymatic activity of human HPK1 (MAP4K1) was monitored in a biochemical assay in the presence or absence of compounds and using a synthetic peptide substrate. An increase in phosphorylation of the peptide by HPK1 was indicative of its kinase activity.
Recombinant HPK1 kinase domain produced via baculovirus infection of insect cells was obtained from Proteros (Proteros Biostructures #PR-0322) and was pre-activated in the presence of 2 mM ATP (Sigma-Aldrich, cat #GE27-2056-01) and 2 mM magnesium chloride for 16 hours at 4° C. The protein reaction mixture was then loaded to a desalting column (Thermo Fisher Scientific, Cat #89889) to remove excess ATP. HPK1 was eluted with buffer containing 20 mM Tris (2-Amino-2-(hydroxymethyl)propane-1,3-diol) pH 8.0, 150 mM NaCl, 2 mM dithiothreitol and 5% glycerol, and was frozen at −80° C. for later use.
Ten nanoliters of test compounds dissolved in DMSO at various concentrations were dispensed into a 384-well ProxiPlate (PerkinElmer #6008289). Five microliters of a solution of recombinant HPK1 diluted in HPK1 kinase assay buffer (50 mM BES [N,N-Bis(2-hydroxyethyl)-2-aminoethanesulfonic acid], pH 7.0; 10 mM magnesium chloride; 0.01% Triton X-100; 1 mM dithiothreitol; 0.01% bovine serum albumin; 0.1 mM sodium orthovanadate) was added to the compound-containing plate and was incubated for 15 minutes at 25° C. Five microliters of a mixture of ATP (Sigma-Aldrich #A6559) and peptide substrate STK S1 (Cisbio #61ST1BLC) diluted in HPK1 kinase assay buffer was then added to start the reaction. Final concentrations were 0.15 nM for HPK1, 10 μM for ATP, and 1 μM for the STK S1 peptide substrate. The reaction mixture was incubated at 25° C. for 3 hours and was stopped with the addition of 10 μl of an EDTA (Ethylenediaminetetraacetic acid)-containing detection buffer (Cisbio #62SDBRDF) supplemented with Europium cryptate-labeled anti-phospho-serine/threonine antibodies (Cisbio #62ST1PEJ) and XL665-labeled streptavidin (Cisbio #610SAXLG). The mixture was incubated for 16 hours at room temperature and peptide phosphorylation was measured by time-resolved fluorescence energy transfer (665 nm/620 nm) on an Envision plate reader (PerkinElmer).
Data in Table 1 were normalized based on positive (staurosporine) and negative (DMSO) controls. Least squares curve fittings were performed using a four-parameter variable slope nonlinear regression model. IC50 is defined as the concentration of compound required to inhibit 50% of maximum phosphorylation. IC50 values from multiple experiments were averaged by geometric mean and the standard deviation was calculated.

Sequence of human HPK1 (MAP4K1) (Q92918 17-274): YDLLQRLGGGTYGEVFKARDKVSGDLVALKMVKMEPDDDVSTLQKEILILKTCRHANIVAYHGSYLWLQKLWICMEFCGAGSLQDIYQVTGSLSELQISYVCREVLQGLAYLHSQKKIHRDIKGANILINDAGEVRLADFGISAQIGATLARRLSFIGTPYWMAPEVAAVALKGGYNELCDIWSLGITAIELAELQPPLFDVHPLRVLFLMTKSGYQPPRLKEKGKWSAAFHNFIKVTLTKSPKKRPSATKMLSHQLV

In order of rising IC50:
1. CC(C)n1cnc2cc(-c3ccc4c(c3)N([C@H]3C[C@@H](N5CCCCC5)C3)C(=O)C43CCN(C(=O)[C@@H](C)O)CC3)nc(Nc3ccnc(F)c3F)c21 [Example 102]  0.1 nM
2. CC(C)n1cnc2cc(-c3ccc4c(c3)N([C@H]3C[C@@H](N5CCC(C)(C)C5)C3)C(=O)C43CCN(C(=O)c4nccs4)CC3)nc(Nc3ccncc3F)c21 [Example 162]  0.1 nM
3. CC[C@@H](O)C(=O)N1CCC2(CC1)C(=O)N([C@H]1C[C@@H](N3CCC(C)(C)C3)C1)c1cc(-c3cc4ncn(C(C)C)c4c(Nc4ccncc4F)n3)ccc12 [Example 117]  0.2 nM
4. CC(C)[C@@H](O)C(=O)N1CCC2(CC1)C(=O)N([C@H]1C[C@@H](N3CCC(C)(C)C3)C1)c1cc(-c3cc4ncn(C(C)C)c4c(Nc4ccncc4F)n3)ccc12 [Example 118]  0.2 nM
5. CC(C)n1cnc2cc(-c3ccc4c(c3)N([C@H]3C[C@@H](N5CCCCC5)C3)C(=O)C43CCN(C(=O)C(C)(C)C#N)CC3)nc(Nc3ccncc3F)c21 [Example 141]  0.3 nM
6. CC(C)n1cnc2cc(-c3ccc4c(c3)N([C@H]3C[C@@H](N5CCCCC5)C3)C(=O)C43CCN(C(=O)C(C)(C)CO)CC3)nc(Nc3ccncc3F)c21 [Example 106, 6-(4-((3-fluoropyridin-4-yl)amino)-3-isopropyl-3H-imidazo[4,5-c]pyridin-6-yl)-1′-(3-hydroxy-2,2-dimethylpropanoyl)-1-((1s,3s)-3-(piperidin-1-yl)cyclobutyl)spiro[indoline-3,4′-piperidin]-2-one]  0.3 nM
7. CC(=O)N1CCC2(CC1)C(=O)N([C@H]1C[C@@H](N3C4CCCC3CC4)C1)c1cc(-c3cc4ncn(C(C)C)c4c(Nc4ccncc4F)n3)ccc12 [Example 186]  0.3 nM
8. CC(C)n1cnc2cc(-c3ccc4c(c3)N([C@H]3C[C@@H](N5CCCCC5)C3)C(=O)C43CCN(C(=O)C4(C)COC4)CC3)nc(Nc3ccncc3F)c21 [Example 147]  0.4 nM
9. Cc1cc(Nc2nc(-c3ccc4c(c3)N([C@H]3C[C@@H](N5CCC(C)(C)C5)C3)C(=O)C43CCN(C(=O)C(C)(C)CO)CC3)cc3ncn(C(C)C)c23)c(F)cn1 [Example 131]  0.6 nM
10. CCn1cnc2cc(-c3ccc4c(c3)N([C@H]3C[C@@H](N5CCCCC5)C3)C(=O)C43CCN(C(=O)C(C)(C)C)CC3)nc(Nc3ccncc3F)c21 [Example 169]  0.8 nM
11. CC(C)n1cnc2cc(-c3ccc4c(c3)N([C@H]3C[C@@H](N5CCC(C)(C)C5)C3)C(=O)C43CCN(C(=O)C4(C)COC4)CC3)nc(Nc3cc(Cl)ncc3F)c21 [Example 130]  1 nM

Same assay, conditions: recombinant human HPK1 kinase domain 0.15 nM, 10 μM ATP, 1 μM STK S1 peptide; geometric mean of multiple experiments

In order of falling IC50:
1. CC(C)n1cnc2cc(-c3ccc4c(c3)N([C@H]3C[C@@H](N5CCCCC5)C3)C(=O)[C@]4(C)O)nc(Nc3ccncc3F)c21 [Example 55B, 6-(4-((3-fluoropyridin-4-yl)amino)-3-isopropyl-3H-imidazo[4,5-c]pyridin-6-yl)-3-hydroxy-3-methyl-1-((1s,3s)-3-(piperidin-1-yl)cyclobutyl)indolin-2-one]  2.2 nM
2. Cc1cc(Nc2nc(-c3ccc4c(c3)N([C@H]3C[C@@H](NCC(C)(C)O)C3)C(=O)C4(C)C)cc3ncn(C(C)C)c23)c(F)cn1 [Example 53]  2.1 nM
3. CC(C)n1cnc2cc(-c3ccc4c(c3)N([C@H]3C[C@@H](N5CC[C@H](C)C5)C3)C(=O)C43CCN(C4COC4)CC3)nc(Nc3ccncc3F)c21 [Example 47]  1.6 nM
4. CC(C)n1cnc2cc(-c3ccc4c(c3)N([C@H]3C[C@@H](N5CCC(C(F)F)C5)C3)C(=O)C43CCN(C4COC4)CC3)nc(Nc3ccncc3F)c21 (some centres unmarked) [Example 48]  1.5 nM
5. CC(C)n1cnc2cc(-c3ccc4c(c3)N([C@H]3C[C@@H](NCC(C)(C)F)C3)C(=O)C4(C)C)nc(Nc3ccncc3F)c21 [Example 64]  1.3 nM
6. CC(C)n1cnc2cc(-c3ccc4c(c3)N([C@H]3C[C@@H](N5CCCCC5)C3)C(=O)[C@@]4(C)O)nc(Nc3ccncc3F)c21 [Example 55A, 6-(4-((3-fluoropyridin-4-yl)amino)-3-isopropyl-3H-imidazo[4,5-c]pyridin-6-yl)-3-hydroxy-3-methyl-1-((1s,3s)-3-(piperidin-1-yl)cyclobutyl)indolin-2-one]  1.2 nM
7. CC(C)n1cnc2cc(-c3ccc4c(c3)N([C@H]3C[C@@H](N5CC6CCC5CC6)C3)C(=O)C4(C)C)nc(Nc3ccncc3F)c21 [Example 58]  0.7 nM
8. CC(C)n1cnc2cc(-c3ccc4c(c3)N([C@H]3C[C@@H](N5CCC[C@@H](C)C5)C3)C(=O)C43CCN(C4COC4)CC3)nc(Nc3ccncc3F)c21 [Example 41]  0.6 nM
9. COC(=O)N1CCC2(CC1)C(=O)N([C@H]1C[C@@H](N3CCCCC3)C1)c1cc(-c3cc4ncn(C(C)C)c4c(Nc4ccncc4F)n3)ccc12 [Example 30]  0.6 nM
10. CC(C)n1cnc2cc(-c3ccc4c(c3)N([C@H]3C[C@@H](N5CC[C@](C)(F)C5)C3)C(=O)C43CCN(C4COC4)CC3)nc(Nc3ccncc3F)c21 [Example 86]  0.6 nM
11. CC(C)n1cnc2cc(-c3ccc4c(c3)N([C@H]3C[C@@H](N5CCCCC5)C3)C(=O)C43CCN(C(=O)[C@@H](C)O)CC3)nc(Nc3ccncc3F)c21 [Example 2]  0.5 nM
12. CC(C)n1cnc2cc(-c3ccc4c(c3)N([C@H]3C[C@@H](N5CCC6(CC6)C5)C3)C(=O)C43CCN(C(=O)C4(C)COC4)CC3)nc(Nc3ccncc3F)c21 [Example 5]  0.5 nM
13. CC(C)n1cnc2cc(-c3ccc4c(c3)N([C@H]3C[C@@H](N5C6CCC5COC6)C3)C(=O)C43CCN(C4COC4)CC3)nc(Nc3ccncc3F)c21 [Example 50]  0.5 nM
14. CC(C)n1cnc2cc(-c3ccc4c(c3)N([C@H]3C[C@@H](N5CCC(C)(C)C5)C3)C(=O)C43CCN(C(=O)C4(C)COC4)CC3)nc(Nc3ccncc3F)c21 [Example 77]  0.4 nM
15. CC(C)n1cnc2cc(-c3ccc4c(c3)N([C@H]3C[C@@H](N5CCC(C)(C)C5)C3)C(=O)C43CCN(C(=O)C(C)(C)O)CC3)nc(Nc3ccncc3F)c21 [Example 4]  0.4 nM
16. CC(C)n1cnc2cc(-c3ccc4c(c3)N([C@H]3C[C@@H](N5CCC(C)(C)C5)C3)C(=O)C43CCN(C(=O)[C@H]4CCO4)CC3)nc(Nc3ccncc3F)c21 (single isomer, unassigned) [Example 78B, 1-((1s,3s)-3-(3,3-dimethylpyrrolidin-1-yl)cyclobutyl)-6-(4-((3-fluoropyridin-4-yl)amino)-3-isopropyl-3H-imidazo[4,5-c]pyridin-6-yl)-1′-(oxetane-2-carbonyl)spiro[indoline-3,4′-piperidin]-2-one]  0.3 nM
17. CC(C)n1cnc2cc(-c3ccc4c(c3)N([C@H]3C[C@@H](N5CCCC6(CC6)C5)C3)C(=O)C43CCN(C(=O)[C@@H](C)O)CC3)nc(Nc3ccncc3F)c21 [Example 36]  0.3 nM
18. CC(C)n1cnc2cc(-c3ccc4c(c3)N([C@H]3C[C@@H](N5CCC(C)(C)C5)C3)C(=O)C43CCN(C(=O)[C@@H]4CCCO4)CC3)nc(Nc3ccncc3F)c21 [Example 13]  0.2 nM
19. CC(C)n1cnc2cc(-c3ccc4c(c3)N([C@H]3C[C@@H](N5CCC(C)(C)C5)C3)C(=O)C43CCN(C(=O)[C@H]4CCCO4)CC3)nc(Nc3ccncc3F)c21 [Example 14]  0.2 nM
20. CC(C)n1cnc2cc(-c3ccc4c(c3)N([C@H]3C[C@@H](N5CCCC(C)(C)C5)C3)C(=O)C43CCN(C4COC4)CC3)nc(Nc3ccncc3F)c21 [Example 45]  0.2 nM
21. CC(=O)N1CCC2(CC1)C(=O)N([C@H]1C[C@@H](N3CC4CCC(C3)O4)C1)c1cc(-c3cc4ncn(C(C)C)c4c(Nc4ccncc4F)n3)ccc12 [Example 34]  0.2 nM
